Target: T1, Recombinant human renin (Homo sapiens, UniProt P00797)
T1 construct: isolate the active form (residues 67-406); made in house; host or cells: FreeStyle 293-F cells (transient expression of pcDNA3.1(+)/hREN)
T1 sequence (P00797 67-406): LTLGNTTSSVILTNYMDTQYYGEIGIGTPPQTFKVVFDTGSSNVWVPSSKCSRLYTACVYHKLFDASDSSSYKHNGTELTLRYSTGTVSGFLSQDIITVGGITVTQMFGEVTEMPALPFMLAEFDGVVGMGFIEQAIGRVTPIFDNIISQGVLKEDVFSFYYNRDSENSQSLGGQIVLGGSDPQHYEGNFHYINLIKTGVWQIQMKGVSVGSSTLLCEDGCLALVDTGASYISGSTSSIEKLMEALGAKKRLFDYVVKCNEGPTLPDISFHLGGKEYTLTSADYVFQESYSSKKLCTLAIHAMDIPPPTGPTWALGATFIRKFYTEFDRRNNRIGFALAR
Assay: In vitro enzymatic activity assay of renin inhibitors (fluorogenic peptide substrate)
Assay type: biochemical
Details: for IC50: read-out: IC50 of Exemplified Compounds Against Renin
Procedure, shortened: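 Recombinant human renin (3 nM final) pre-incubated 10 min at 37 °C with compounds in pH 7.4 Hepes/EDTA/DTT/0.1 mg/mL BSA/Brij35 buffer (optionally plus 2% BSA), 5% DMSO final; fluorogenic QXL520/HiLyteFluo488 peptide substrate added.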

Structure (SMILES) | IC50 [µM] | Eutomer / distomer designation of the separated stereoisomers (isomers separated by preparative SFC, more or less active isomer as renin inhibitor)
COCCCn1c([C@@H]2CCCN(C(=O)C[C@H](N)Cc3ccc(-c4ccc(C(=O)N5CC[C@@H](O)C5)cc4)cc3)C2)nc2ccccc21 [Compound 185, (R)-3-amino-4-(4′-((R)-3-hydroxypyrrolidine-1-carbonyl)biphenyl-4-yl)-1-((R)-3-(1-(3-methoxypropyl)-1H-benzo[d]imidazol-2-yl)piperidin-1-yl)butan-1-one] | < 0.1 | –
CC(=O)NCCn1c([C@@H]2CCCN(C(=O)C[C@H](N)Cc3ccc(-c4ccc5c(c4)SCC(=O)O5)cc3)C2)nc2ccccc21 [Compound 464, N-(2-(2-((R)-1-((R)-3-amino-4-(4-(2-oxo-2,3-dihydrobenzo[b][1,4]oxathiin-6-yl)phenyl)butanoyl)piperidin-3-yl)-1H-benzo[d]imidazol-1-yl)ethyl)acetamide] | < 0.1 | –
NC(=O)CCn1c([C@@H]2CCCN(C(=O)C[C@H](N)Cc3ccc(-c4cnc(N)nc4)cc3)C2)nc2ccccc21 [Compound 481, 3-(2-((R)-1-((R)-3-amino-4-(4-(2-aminopyrimidin-5-yl)phenyl)butanoyl)piperidin-3-yl)-1H-benzo[d]imidazol-1-yl)propanamide] | 0.1 to 1 | –
COCCCn1c([C@@H]2CCCN(C(=O)[C@@H]3CN(S(=O)(=O)c4cccc5ccccc45)C[C@H]3N)C2)nc2ccccc21 [Compound 354, ((3R,4S)-4-amino-1-(naphthalen-1-ylsulfonyl)pyrrolidin-3-yl)((R)-3-(1-(3-methoxypropyl)-1H-benzo[d]imidazol-2-yl)piperidin-1-yl)methanone] | 0.1 to 1 | –
COCCCn1c([C@@H]2CCCN(C(=O)C[C@H](N)CNC(=O)c3cccc(-c4noc(C)n4)c3)C2)nc2ccccc21 [Compound 303, N-((S)-2-amino-4-((R)-3-(1-(3-methoxypropyl)-1H-benzo[d]imidazol-2-yl)piperidin-1-yl)-4-oxobuty)-3-(5-methyl-1,2,4-oxadiazol-3-yl)benzamide] | 0.1 to 1 | –
COCCCn1c([C@@H]2CCCN(C(=O)[C@@H]3CN(S(=O)(=O)c4ccccc4C(=O)OC)C[C@H]3N)C2)nc2ccccc21 [Compound 373, methyl 2-((3S,4R)-3-amino-4-((R)-3-(1-(3-methoxypropyl)-1H-benzo[d]imidazol-2-yl)piperidine-1-carbonyl)pyrrolidin-l-ylsulfonyl)benzoate] | 0.1 to 1 | –
NC(=O)CCn1c([C@@H]2CCCN(C(=O)C[C@H](N)Cc3ccc(-c4ccc5c(c4)OC(F)(F)O5)cc3)C2)nc2ccccc21 [Compound 483, 3-(2-((R)-1-((R)-3-amino-4-(4-(2,2-difluorobenzo[d][1,3]dioxol-5-yl)phenyl)butanoyl)piperidin-3-yl)-1H-benzo[d]imidazol-1-yl)propanamide] | 0.1 to 1 | –
COCCCn1c([C@@H]2CCCN(C(=O)[C@@H]3CN(S(=O)(=O)c4cccc(OC(F)F)c4)C[C@H]3N)C2)nc2ccccc21 [Compound 419, ((3R,4S)-4-amino-1-(3-(difluoromethoxy)phenylsulfonyl)pyrrolidin-3-yl)((R)-3-(1-(3-methoxypropyl)-1H-benzo[d]imidazol-2-yl)piperidin-1-yl)methanone] | > 1 | –
CCOC(=O)CCNC(=O)N1CCCC(c2nc3ccccc3[nH]2)C1 (stereo not shown) [Compound 14, ethyl 3-(3-(1H-benzo[d]imidazol-2-yl)piperidine-1-carboxamido)propanoate] | > 1 | –
COCCCn1c([C@@H]2CCCN(C(=O)C[C@H](N)CNC(=O)c3ccco3)C2)nc2ccccc21 [Compound 325, N-((S)-2-amino-4-((R)-3-(1-(3-methoxypropyl)-1H-benzo[d]imidazol-2-yl)piperidin-1-yl)-4-oxobutyl)furan-2-carboxamide] | > 1 | –
COCCCn1c([C@@H]2CCCN(C(=O)[C@@H]3CN(C(=O)c4cccc(C(=O)OC)c4)C[C@H]3N)C2)nc2ccccc21 [Compound 377, methyl 3-((3S,4R)-3-amino-4-((R)-3-(1-(3-methoxypropyl)-1H-benzo[d]imidazol-2-yl)piperidine-1-carbonyl)pyrrolidine-1-carbonyl)benzoate] | 0.1 to 1 | –
COCCCn1c([C@@H]2CCCN(C(=O)C[C@H](N)Cc3ccc(-c4ccc(C(=O)NCC(O)CO)cc4)cc3)C2)nc2ccccc21 (stereo partly drawn) [Compound 181, 4′-((R)-2-amino-4-((R)-3-(1-(3-methoxypropyl)-1H-benzo[d]imidazol-2-yl)piperidin-1-yl)-4-oxobutyl)-N-(2,3-dihydroxypropyl)biphenyl-4-carboxamide] | < 0.1 | –
N[C@@H](CC(=O)N1CCCC(c2nc3ccccc3[nH]2)C1)Cc1csc2ccccc12 (stereo partly drawn) [Compound 29, (3R)-1-(3-(1H-benzo[d]imidazol-2-yl)piperidin-1-yl)-3-amino-4-(benzo[b]thiophen-3-yl)butan-1-one] | > 1 | –
O=C(Nc1ccc2ccccc2c1)N1CCCC(c2nc3ccccc3[nH]2)C1 (stereo not shown) [Compound 4, 3-(1H-benzo[d]imidazol-2-yl)-N-(naphthalen-2-yl)piperidine-1-carboxamide] | > 1 | –
COCCCn1c([C@@H]2CCCN(C(=O)[C@@H]3CN(C(=O)Nc4cccc(Cl)c4)C[C@H]3N)C2)nc2ccccc21 [Compound 378, (3S,4R)3-amino-N-(3-chlorophenyl)-4-((R)-3-(1-(3-methoxypropyl)-1H-benzo[d]imidazol-2-yl)piperidine-1-carbonyl)pyrrolidine-1-carboxamide] | 0.1 to 1 | –
COCCCn1c([C@]2(O)CCCN(C(=O)C[C@H](N)Cc3ccc(Cl)cc3)C2)nc2ccccc21 [Compound 247, (R)-3-amino-4-(4-chlorophenyl)-1-((S)-3-hydroxy-3-(1-(3-methoxypropyl)-1H-benzo[d]imidazol-2-yl)piperidin-1-yl)butan-1-one] | > 1 | Distomer
CCCSc1ncccc1C(=O)N1C[C@@H](N)[C@H](C(=O)N2CCC[C@@H](c3nc4ccccc4n3CCCOC)C2)C1 [Compound 418] | > 1 | –

Next, values leading:

IC50 [µM] | Eutomer / distomer designation of the separated stereoisomers (isomers separated by preparative SFC, more or less active isomer as renin inhibitor) | Structure (SMILES)
> 1 | – | COCCCn1c(C2CC(C)CN(C(=O)C[C@H](N)Cc3ccc4ccccc4c3)C2)nc2ccccc21 (stereo partly drawn) [Compound 246, (3R)-3-amino-1-(3-(1-(3-methoxypropyl)-1H-benzo[d]imidazol-2-yl)-5-methylpiperidin-1-yl)-4-(naphthalen-2-yl)butan-1-one]
0.1 to 1 | – | COCCCn1c([C@@H]2CCCN(C(=O)C[C@H](N)Cc3ccc(N4CCN(C(C)=O)CC4)cc3)C2)nc2ccccc21 [Compound 232, (R)-4-(4-(4-acetylpiperazin-1-yl)phenyl)-3-amino-1-((R)-3-(1-(3-methoxypropyl)-1H-benzo[d]imidazol-2-yl)piperidin-1-yl)butan-1-one]
< 0.1 | – | COCCCn1c([C@@H]2CCCN(C(=O)C[C@H](N)CNC(=O)c3ccc(-c4ccccc4F)o3)C2)nc2ccccc21 [Compound 260, N-((S)-2-amino-4-((R)-3-(1-(3-methoxypropyl)-1H-benzo[d]imidazol-2-yl)piperidin-1-yl)-4-oxobutyl)-5-(2-fluorophenyl)furan-2-carboxamide]
< 0.1 | – | COCCCn1c([C@@H]2CCCN(C(=O)C[C@H](N)Cc3ccc(-c4ccc(NC(C)=O)cc4)cc3)C2)nc2ccccc21 [Compound 129, N-(4′-((R)-2-amino-4-((R)-3-(1-(3-methoxypropyl)-1H-benzo[d]imidazol-2-yl)piperidin-1-yl)-4-oxobutyl)biphenyl-4-yl)acetamide]
> 1 | – | COCCCn1c(C2CCCN(C(=O)C[C@@H](N)Cc3ccc(Cl)cc3)C2)nc2ccccc21 (stereo partly drawn) [Compound 67, (3S)-3-amino-4-(4-chlorophenyl)-1-(3-(1-(3-methoxypropyl)-1H-benzo[d]imidazol-2-yl)piperidin-1-yl)butan-1-one]
0.1 to 1 | – | COCCCn1c([C@@H]2CCCN(C(=O)C[C@H](N)Cc3ccc4ccccc4c3)C2)nc2ccc(OC)nc21 [Compound 503, (3R)-3-amino-1-(3-(5-methoxy-3-(3-methoxypropyl)-3H-imidazo[4,5-b]pyridin-2-yl)piperidin-1-yl)-4-(naphthalen-2-yl)butan-1-one]
< 0.1 | – | COCCCn1c([C@@H]2CCCN(C(=O)C[C@H](N)Cc3ccc(-c4ccccc4COC)cc3)C2)nc2ccccc21 [Compound 130, (R)-3-amino-4-(2′-(methoxymethyl)biphenyl-4-yl)-1-((R)-3-(1-(3-methoxypropyl)-1H-benzo[d]imidazol-2-yl)piperidin-1-yl)butan-1-one]
0.1 to 1 | – | COCCCn1c([C@@H]2CCCN(C(=O)C[C@H](N)CNC(=O)Nc3ccccc3C(C)C)C2)nc2ccccc21 [Compound 301, 1-((S)-2-amino-4-((R)-3-(1-(3-methoxypropyl)-1H-benzo[d]imidazol-2-yl)piperidin-1-yl)-4-oxobutyl)-3-(2-isopropylphenyl)urea]
> 1 | – | COCCCn1c([C@@H]2CCCN(C(=O)C[C@H](N)c3ccccc3)C2)nc2ccccc21 [Compound 89, (S)-3-amino-1((R)-3-(1-(3-methoxypropyl)-1H-benzo[d]imidazol-2-yl)piperidin-1-yl)-3-phenylpropan-1-one]
0.1 to 1 | – | COCCCn1c([C@@H]2CCCN(C(=O)C[C@H](N)Cc3ccc4ccccc4c3)C2)nc2ccc(F)cc21 [Compound 95, (R)-3-amino-1((R)-3-(6-fluoro-1-(3-methoxypropyl)-1H-benzo[d]imidazol-2-yl)piperidin-1-yl)-4-(naphthalen-2-yl)butan-1-one]

— US8138168B1 (Takeda Pharmaceutical Company Limited, priority 2007, dated 2012)
